Several values for one entry are separate records, joined by “and”; a condition that tells them apart may be missing. Identical values can stand only once. Entries after “also recorded” stand apart in the source; their conditions may differ.
Columns and labels:
Histamine H1 = Histamine H1 (Homo sapiens, UniProt P35367); test: Eurofins panel 239610; type: binding
[1] = test system: primary human fibroblasts; test: Cell viability MTS assay; type: cell-based
Experimental: Cell proliferation was measured using a standard 3-(4,5-dimethylthiazol-2-yl)-5-(3-carboxymethoxypheny1)-2-(4-sulfophenyl)-2H-tetrazolium, inner salt (MTS) assay (Cell Titer 96® Aqueous One Solution Cell Proliferation Assay, Promega, Australia) as per the manufacturer’s protocol. Briefly, 2500 primary scar fibroblasts below passage eight were seeded in each well of 96-well plates. The cells then exposed to 0, 1, 2.5, 5, 10, 25, 50, and 100 µM concentrations of PXS-4787 in cell culture media (DMEM-Glutamax™ supplemented with 10% Fetal Bovine Serum and 1% Penicillin/ Streptomycin, Life technologies, USA) for 24, 48 and 72 h. MTS solution (20 µL) was added in each well and incubated for 3.5 h in a humidified chamber at 37 °C and 5% CO2. The absorbance recorded on a UV–visible spectrophotometer (Enspire Multimode plate reader, PerkinElmer®) at 490 nanometers.

[2] = target: Transporter, Serotonin (5- Hydroxytryptamine) (SERT) (Homo sapiens, UniProt P31645); test: Eurofins panel 274030; type: binding
Sequence of Transporter, Serotonin (5- Hydroxytryptamine) (SERT) (P31645 whole entry): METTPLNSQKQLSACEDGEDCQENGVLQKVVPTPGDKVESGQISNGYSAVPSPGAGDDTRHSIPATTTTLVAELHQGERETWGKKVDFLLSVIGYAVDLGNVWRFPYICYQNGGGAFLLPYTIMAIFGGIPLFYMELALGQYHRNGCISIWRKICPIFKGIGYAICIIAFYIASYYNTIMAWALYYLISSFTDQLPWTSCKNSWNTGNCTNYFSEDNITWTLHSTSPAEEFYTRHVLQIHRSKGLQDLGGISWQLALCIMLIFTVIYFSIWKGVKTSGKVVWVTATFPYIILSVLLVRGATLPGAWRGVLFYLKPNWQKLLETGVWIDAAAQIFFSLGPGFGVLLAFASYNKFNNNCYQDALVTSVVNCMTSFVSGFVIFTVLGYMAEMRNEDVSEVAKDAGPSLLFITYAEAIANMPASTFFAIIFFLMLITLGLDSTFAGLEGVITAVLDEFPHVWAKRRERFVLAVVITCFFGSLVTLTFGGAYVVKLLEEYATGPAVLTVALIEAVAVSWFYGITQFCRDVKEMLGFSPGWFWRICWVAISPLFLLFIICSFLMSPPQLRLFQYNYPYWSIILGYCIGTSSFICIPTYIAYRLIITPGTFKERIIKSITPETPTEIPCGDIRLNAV

hERG potassium channel = hERG potassium channel (Homo sapiens, UniProt Q12809); test: Eurofins panel 265900; type: binding
Muscarinic M3 = Muscarinic M3 (Homo sapiens, UniProt P20309); test: Eurofins panel 252810; type: binding
Sequence of Muscarinic M3 (P20309 whole entry): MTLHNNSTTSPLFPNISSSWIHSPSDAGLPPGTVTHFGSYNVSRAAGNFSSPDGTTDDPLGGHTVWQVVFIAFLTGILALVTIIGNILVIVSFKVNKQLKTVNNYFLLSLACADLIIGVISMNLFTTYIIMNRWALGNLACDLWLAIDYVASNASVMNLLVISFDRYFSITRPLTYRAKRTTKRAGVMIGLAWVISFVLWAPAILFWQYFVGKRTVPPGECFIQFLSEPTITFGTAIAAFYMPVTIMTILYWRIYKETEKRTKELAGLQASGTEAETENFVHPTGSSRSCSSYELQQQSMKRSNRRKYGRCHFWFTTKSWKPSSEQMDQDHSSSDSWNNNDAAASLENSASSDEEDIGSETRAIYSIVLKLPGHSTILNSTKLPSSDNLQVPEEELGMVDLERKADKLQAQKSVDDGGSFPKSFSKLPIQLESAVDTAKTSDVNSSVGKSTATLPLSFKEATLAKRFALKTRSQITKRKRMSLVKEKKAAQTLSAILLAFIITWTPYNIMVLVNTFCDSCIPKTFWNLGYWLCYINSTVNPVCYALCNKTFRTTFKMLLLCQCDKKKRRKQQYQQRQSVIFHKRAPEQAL

Histamine H2 = Histamine H2 (Homo sapiens, UniProt P25021); test: Eurofins panel 239710; type: binding
Sequence of Histamine H2 (P25021 whole entry): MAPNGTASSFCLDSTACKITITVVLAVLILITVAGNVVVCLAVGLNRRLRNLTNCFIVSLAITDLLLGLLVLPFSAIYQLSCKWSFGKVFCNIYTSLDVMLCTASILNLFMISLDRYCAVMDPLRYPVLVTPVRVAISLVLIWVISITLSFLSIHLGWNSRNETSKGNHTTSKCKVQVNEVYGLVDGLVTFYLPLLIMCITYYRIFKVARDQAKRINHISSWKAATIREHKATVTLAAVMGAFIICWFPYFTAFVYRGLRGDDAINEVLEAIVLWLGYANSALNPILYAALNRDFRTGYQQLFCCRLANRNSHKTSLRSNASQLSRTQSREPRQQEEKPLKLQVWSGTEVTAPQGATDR

[3] = target: Transporter, Norepinephrine (NET) (Homo sapiens, UniProt P23975); test: Eurofins panel 204410; type: binding
Sequence of Transporter, Norepinephrine (NET) (P23975 whole entry): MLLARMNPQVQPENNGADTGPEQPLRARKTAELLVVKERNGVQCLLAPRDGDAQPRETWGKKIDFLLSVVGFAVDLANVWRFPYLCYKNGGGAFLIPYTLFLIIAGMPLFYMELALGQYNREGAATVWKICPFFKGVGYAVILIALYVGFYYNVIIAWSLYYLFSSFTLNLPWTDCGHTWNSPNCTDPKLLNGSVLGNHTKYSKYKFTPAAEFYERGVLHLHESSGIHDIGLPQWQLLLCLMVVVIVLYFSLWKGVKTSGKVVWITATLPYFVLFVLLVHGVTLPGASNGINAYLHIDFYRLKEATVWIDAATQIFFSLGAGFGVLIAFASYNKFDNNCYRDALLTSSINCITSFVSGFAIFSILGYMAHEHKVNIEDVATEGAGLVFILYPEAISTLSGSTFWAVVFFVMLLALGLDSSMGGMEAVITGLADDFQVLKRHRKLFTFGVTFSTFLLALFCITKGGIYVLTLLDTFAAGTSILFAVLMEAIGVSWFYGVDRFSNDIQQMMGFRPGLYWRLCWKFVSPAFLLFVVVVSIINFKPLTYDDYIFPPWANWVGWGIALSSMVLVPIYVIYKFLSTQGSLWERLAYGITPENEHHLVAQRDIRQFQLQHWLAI

Dopamine D2S = Dopamine D2S (Homo sapiens, UniProt P14416); test: Eurofins panel 219700; type: binding
Sequence of Dopamine D2S (P14416 1-414 isoform P14416-2): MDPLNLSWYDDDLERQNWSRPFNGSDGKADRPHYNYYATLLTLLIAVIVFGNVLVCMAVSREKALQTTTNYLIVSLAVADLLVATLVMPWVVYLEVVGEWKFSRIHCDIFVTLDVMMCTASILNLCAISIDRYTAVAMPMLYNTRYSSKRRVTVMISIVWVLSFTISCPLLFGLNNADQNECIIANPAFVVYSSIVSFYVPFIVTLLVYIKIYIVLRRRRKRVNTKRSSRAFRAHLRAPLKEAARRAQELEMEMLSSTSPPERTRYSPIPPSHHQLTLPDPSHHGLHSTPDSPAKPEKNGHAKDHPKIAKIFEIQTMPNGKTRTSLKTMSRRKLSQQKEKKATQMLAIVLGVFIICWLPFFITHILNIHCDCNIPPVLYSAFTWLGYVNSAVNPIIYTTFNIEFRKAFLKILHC

[4] = target: Transporter, Dopamine (DAT) (Homo sapiens, UniProt Q01959); test: Eurofins panel 220320; type: binding
Sequence of Transporter, Dopamine (DAT) (Q01959 whole entry): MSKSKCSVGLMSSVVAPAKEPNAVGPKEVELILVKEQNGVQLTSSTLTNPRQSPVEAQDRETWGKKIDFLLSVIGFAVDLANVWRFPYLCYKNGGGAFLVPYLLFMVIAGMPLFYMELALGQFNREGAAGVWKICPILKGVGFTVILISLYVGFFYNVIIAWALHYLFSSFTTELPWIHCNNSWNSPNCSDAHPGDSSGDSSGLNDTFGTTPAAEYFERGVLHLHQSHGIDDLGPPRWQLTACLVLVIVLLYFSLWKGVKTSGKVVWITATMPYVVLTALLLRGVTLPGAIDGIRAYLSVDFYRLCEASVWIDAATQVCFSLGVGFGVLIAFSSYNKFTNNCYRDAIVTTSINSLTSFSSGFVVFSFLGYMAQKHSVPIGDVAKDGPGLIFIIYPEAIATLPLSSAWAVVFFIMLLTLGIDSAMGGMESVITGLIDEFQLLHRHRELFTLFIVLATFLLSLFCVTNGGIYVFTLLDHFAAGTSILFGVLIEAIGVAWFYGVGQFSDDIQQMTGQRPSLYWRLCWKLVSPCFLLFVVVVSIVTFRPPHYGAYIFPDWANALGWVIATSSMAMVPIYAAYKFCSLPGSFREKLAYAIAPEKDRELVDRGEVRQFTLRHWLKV

[5] = test system: Calcium Channel L-Type, Benzothiazepine; test: Eurofins panel 214510; type: binding, rat; details: 10 µM
Cannabinoid CB1 = Cannabinoid CB1 (Homo sapiens, UniProt P21554); test: Eurofins panel 217030; type: binding
Sequence of Cannabinoid CB1 (P21554 whole entry): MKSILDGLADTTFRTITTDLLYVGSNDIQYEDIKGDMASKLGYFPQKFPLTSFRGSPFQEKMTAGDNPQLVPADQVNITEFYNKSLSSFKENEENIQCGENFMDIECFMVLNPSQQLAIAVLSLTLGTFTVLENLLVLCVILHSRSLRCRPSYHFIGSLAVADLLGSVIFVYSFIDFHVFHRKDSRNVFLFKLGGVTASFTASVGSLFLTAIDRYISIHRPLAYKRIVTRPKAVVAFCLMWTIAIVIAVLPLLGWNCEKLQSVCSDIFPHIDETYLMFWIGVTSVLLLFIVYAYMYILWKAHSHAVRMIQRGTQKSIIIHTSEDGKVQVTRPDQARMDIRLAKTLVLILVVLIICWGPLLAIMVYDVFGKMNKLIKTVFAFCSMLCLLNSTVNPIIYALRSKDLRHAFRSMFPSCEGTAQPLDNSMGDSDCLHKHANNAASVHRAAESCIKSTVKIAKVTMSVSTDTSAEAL

[6] = target: Serotonin (5-Hydroxytryptamine) 5-HT2B (Homo sapiens, UniProt P41595); test: Eurofins panel 271700; type: binding
Prostanoid EP4 = Prostanoid EP4 (Homo sapiens, UniProt P35408); test: Eurofins panel 268420; type: binding
[7] = target: Serotonin (5-Hydroxytryptamine) 5-HT1A (Homo sapiens, UniProt P08908); test: Eurofins panel 271110; type: binding
Sequence of Serotonin (5-Hydroxytryptamine) 5-HT1A (P08908 whole entry): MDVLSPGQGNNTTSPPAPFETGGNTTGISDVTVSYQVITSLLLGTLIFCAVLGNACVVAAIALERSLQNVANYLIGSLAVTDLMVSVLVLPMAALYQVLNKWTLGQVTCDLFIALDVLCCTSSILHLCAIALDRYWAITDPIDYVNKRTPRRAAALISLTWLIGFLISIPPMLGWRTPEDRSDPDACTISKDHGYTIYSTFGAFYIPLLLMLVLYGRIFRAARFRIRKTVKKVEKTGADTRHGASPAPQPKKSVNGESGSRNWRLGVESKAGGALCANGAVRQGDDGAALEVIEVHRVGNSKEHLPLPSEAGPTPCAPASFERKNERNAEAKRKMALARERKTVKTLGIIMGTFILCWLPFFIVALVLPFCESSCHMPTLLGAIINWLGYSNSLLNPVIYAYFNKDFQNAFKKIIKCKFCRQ

[8] = target: Serotonin (5-Hydroxytryptamine) 5-HT3 (Homo sapiens, UniProt P46098); test: Eurofins panel 271910; type: binding
Sequence of Serotonin (5-Hydroxytryptamine) 5-HT3 (P46098 24-478): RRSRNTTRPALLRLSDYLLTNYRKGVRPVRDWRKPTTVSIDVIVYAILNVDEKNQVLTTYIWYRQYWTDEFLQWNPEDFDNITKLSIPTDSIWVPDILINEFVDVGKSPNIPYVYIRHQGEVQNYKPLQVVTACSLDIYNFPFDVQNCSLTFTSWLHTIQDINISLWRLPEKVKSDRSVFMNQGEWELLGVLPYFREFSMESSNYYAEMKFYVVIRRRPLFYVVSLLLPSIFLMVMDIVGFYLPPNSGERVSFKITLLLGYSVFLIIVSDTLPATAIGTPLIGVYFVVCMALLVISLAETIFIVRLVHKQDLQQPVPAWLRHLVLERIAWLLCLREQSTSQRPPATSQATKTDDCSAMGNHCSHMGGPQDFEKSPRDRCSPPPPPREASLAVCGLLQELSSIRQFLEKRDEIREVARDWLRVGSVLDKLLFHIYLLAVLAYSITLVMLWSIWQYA

[9] = test system: Calcium Channel L-Type, Dihydropyridine; test: Eurofins panel 214600; type: binding, rat
[10] = test system: GABAA, Flunitrazepam, Central; test: Eurofins panel 226600; type: binding, rat
Glutamate, NMDA, Agonism = test: Eurofins panel 232810; type: binding, rat
[11] = test system: primary human dermal fibroblasts; test: qPCR COL1A1 and LOX gene expression; type: cell-based; set-up: key to qPCR COLIAI / qPCRLOX: relative expression by 2^−ΔΔCt, GAPDH/PGK1 housekeeping
Experimental: Changes in COL1A1 and LOX gene expression in PXS-4787 treated cells were done using primary human dermal fibroblasts (50,000) seeded in a 6-well plate under Scar-in-a-jar media. The cells were incubated with 0 µM, 1 µM, and 10 µM PXS-4787 treatment for 48 h. mRNA was extracted using RNeasy mini kit® according to the manufacturer’s protocol (Qiagen Gmbh). The total concentration and purity of RNA were determined using a NAnodrop 2000C (Thermo Scientific, USA). For reverse transcription, mRNA was converted to cDNA using QuantiTect Reverse Transcription kit (Qiagen; Catalog no. 205311) according to the manufacturer’s protocol. Quantitative real-time RT-PCR was conducted using SYBR Green Master Mix (Qiagen; Catalog no. 204143) and Rotor gene Q thermocycler (Qiagen). The reactions were carried out in triplicate in 20 µl total volume containing 1 µl cDNA and 2 µl primers. The QuantiTect Primer assay for COL1A1 (Catalog no. QT00037793), LOX (Catalog no. QT00017311) were used. GAPDH (Catalog no. QT00079247) and PGK1 (Catalog no. 249900) were used as a housekeeping gene. The data were analyzed using Rotor geneQ software and the relative gene expression was calculated using the 2−^(∆∆c (t)) method. Three biological samples were used for each condition.

Cyclooxygenase COX-2 = Cyclooxygenase COX-2 (Homo sapiens, UniProt P35354); test: Eurofins panel 118010; type: biochemical

NC/C=C(\F)CS(=O)(=O)c1ccccc1 [PXS-4787]
inhibition at 10 µM (Histamine H1; 10 µM): 14%
fibroblast cell viability ([1]; 0–100 µM, 24, 48 and 72 h): No significant difference in viability; also recorded: no effect
Supp Fig. 1 cell viability MTS reading (quantity not given) ([1]; 1μM, time 0 hrs): 0.5417 and 0.513 and 0.509
Supp Fig. 1 cell viability MTS reading (quantity not given) ([1]; 1μM, time 24 hrs): 0.5067 and 0.503 and 0.5037
Supp Fig. 1 cell viability MTS reading (quantity not given) ([1]; 1μM, time 48 hrs): 0.5417 and 0.513 and 0.509
Supp Fig. 1 cell viability MTS reading (quantity not given) ([1]; 1μM, time 72 hrs): 0.4673 and 0.4607 and 0.4573
Supp Fig. 1 cell viability MTS reading (quantity not given) ([1]; 5μM, time 0 hrs): 0.505 and 0.4817 and 0.4813
Supp Fig. 1 cell viability MTS reading (quantity not given) ([1]; 5μM, time 24 hrs): 0.4947 and 0.4857 and 0.4823
Supp Fig. 1 cell viability MTS reading (quantity not given) ([1]; 5μM, time 48 hrs): 0.505 and 0.4817 and 0.4813
Supp Fig. 1 cell viability MTS reading (quantity not given) ([1]; 5μM, time 72 hrs): 0.461 and 0.4743 and 0.4797
Supp Fig. 1 cell viability MTS reading (quantity not given) ([1]; 10μM, time 0 hrs): 0.5527 and 0.5103 and 0.5143
Supp Fig. 1 cell viability MTS reading (quantity not given) ([1]; 10μM, time 24 hrs): 0.533 and 0.5197 and 0.5183
Supp Fig. 1 cell viability MTS reading (quantity not given) ([1]; 10μM, time 48 hrs): 0.5527 and 0.5103 and 0.5143
Supp Fig. 1 cell viability MTS reading (quantity not given) ([1]; 10μM, time 72 hrs): 0.428 and 0.481 and 0.4927
Supp Fig. 1 cell viability MTS reading (quantity not given) ([1]; 25μM, time 0 hrs): 0.569 and 0.5407 and 0.5403
Supp Fig. 1 cell viability MTS reading (quantity not given) ([1]; 25μM, time 24 hrs): 0.5363 and 0.517 and 0.513
Supp Fig. 1 cell viability MTS reading (quantity not given) ([1]; 25μM, time 48 hrs): 0.569 and 0.5407 and 0.5403
Supp Fig. 1 cell viability MTS reading (quantity not given) ([1]; 25μM, time 72 hrs): 0.45 and 0.5113 and 0.529
Supp Fig. 1 cell viability MTS reading (quantity not given) ([1]; 50μM, time 0 hrs): 0.5427 and 0.5253 and 0.526
Supp Fig. 1 cell viability MTS reading (quantity not given) ([1]; 50μM, time 24 hrs): 0.4977 and 0.5027 and 0.5057
Supp Fig. 1 cell viability MTS reading (quantity not given) ([1]; 50μM, time 48 hrs): 0.5427 and 0.5253 and 0.526
Supp Fig. 1 cell viability MTS reading (quantity not given) ([1]; 50μM, time 72 hrs): 0.5073 and 0.527 and 0.526
Supp Fig. 1 cell viability MTS reading (quantity not given) ([1]; 100μM, time 0 hrs): 0.478 and 0.466 and 0.467
Supp Fig. 1 cell viability MTS reading (quantity not given) ([1]; 100μM, time 24 hrs): 0.468 and 0.457 and 0.456
Supp Fig. 1 cell viability MTS reading (quantity not given) ([1]; 100μM, time 48 hrs): 0.461 and 0.4477 and 0.449
Supp Fig. 1 cell viability MTS reading (quantity not given) ([1]; 100μM, time 72 hrs): 0.4837 and 0.4977 and 0.499
inhibition at 10 µM ([2]; 10 µM): 8%
inhibition at 10 µM (hERG potassium channel): 9%
inhibition at 10 µM (Muscarinic M3; 10 µM): 27%
inhibition at 10 µM (Histamine H2; 10 µM): -4%
inhibition at 10 µM ([3]; 10 µM): 24%
inhibition at 10 µM (Dopamine D2S; 10 µM): 13%
inhibition at 10 µM ([4]; 10 µM): 6%
% Inh. [5]: 24%
inhibition at 10 µM (Cannabinoid CB1; 10 µM): 8%
inhibition at 10 µM ([6]; 10 µM): 21%
inhibition at 10 µM (Prostanoid EP4): -2%
inhibition at 10 µM ([7]; 10 µM): 0%
inhibition at 10 µM ([8]; 10 µM): 6%
% Inh. ([9]; 10 µM): -4%
% Inh. ([10]; 10 µM): -1%
% Inh. (Glutamate, NMDA, Agonism; 10 µM): 2%
COL1A1 or LOX RNA levels ([11]; 0, 1, 10 µM, 48 h): No change
qPCR COLIAI ([11]; 1μM): 0.9946 and 1.0482 and 1.0167
qPCRLOX ([11]; 1μM): 1.068 and 1.006 and 0.9855
qPCR COLIAI ([11]; 10 µM): 0.9655 and 0.9268 and 1.013
qPCRLOX ([11]; 10 µM): 0.9777 and 0.8786 and 0.9515

NC/C=C(\F)C(F)(F)S(=O)(=O)c1ccccc1 [PXS-6302]
inhibition at 30 µM (Histamine H1; read-out: % Inh.): 10%
inhibition at 30 µM (Cyclooxygenase COX-2): 21%
inhibition at 30 µM ([2]; read-out: % Inh.): 20%
inhibition at 30 µM (Muscarinic M3; read-out: % Inh.): 15%
inhibition at 30 µM (Histamine H2; read-out: % Inh.): 5%
inhibition at 30 µM ([3]; read-out: % Inh.): 55%
inhibition at 30 µM (Dopamine D2S; read-out: % Inh.): 13%
inhibition at 30 µM ([4]; read-out: % Inh.): 50%
inhibition at 30 µM (Cannabinoid CB1; read-out: % Inh.): 4%
inhibition at 30 µM ([6]; read-out: % Inh.): 63%
inhibition at 30 µM ([7]; read-out: % Inh.): 3%
inhibition at 30 µM ([8]; read-out: % Inh.): 6%
% Inh. ([9]; 30 µM): 2%
% Inh. ([10]; 30 µM): 4%
% Inh. (Glutamate, NMDA, Agonism; 30 µM): -16%

Reference: publication PMC9500072, “Topical application of an irreversible small molecule inhibitor of lysyl oxidases ameliorates skin scarring and fibrosis” (Nature Communications, 2022)
